Assay results from patent US11807668B2, “Use of citronellol in preparing preparation for promoting expression of virulence gene Toxa of Pseudomonas aeruginosa” (priority 2021, dated 2023).

Columns and labels:
[1] = tested on: Pseudomonas aeruginosa PAO1; experiment: Effects of citronellol on the growth of Pseudomonas aeruginosa PAO1 (growth curve, OD600, Bioscreen C); format: cell-based
Protocol: (§1) Preparation of PAO1[(Pseudomonas aeruginosa) PAO1] bacterial suspension: a culture solution of Pseudomonas aeruginosa PAO1 in an exponential growth phase was sampled, centrifuged, washed once with a PBS buffer, resuspended in PBS, and diluted to 10^8 CFU/mL to obtain the PAO1 bacterial suspension.
An LB culture medium and citronellol […] were added to test tubes respectively, and the PAO1 bacterial suspension in the exponential growth phase was inoculated to reach a total volume of 10 mL respectively. The bacterial concentration of PAO1 was each 10^6′ CFU/mL, and the concentration of citronellol was 0 (control), 0.313 μL/mL, 0.625 μL/mL, 1.25 μL/mL, and 2.5 μL/mL, respectively. Samples from several test groups were added to a honeycomb culture plate dedicated to an automatic growth curve analyzer (Bioscreen C), and 350 μL of culture solution was added to each well, with three parallel for each test group. The honeycomb culture plate was placed in the automatic growth curve analyzer, and cultured over shaking at 37° C. for 3 days, and OD600 was measured every hour. Taking OD600 as the ordinate and a culture time as the abscissa, the growth curve of PAO1 under the action of citronellol was drawn to study the effect of the citronellol on the growth of PAO1. The results were shown as in FIG. 1.

[2] = tested on: key genes of a quorum-sensing system of Pseudomonas aeruginosa and virulence genes regulated thereby (PAO1 cells); experiment: Effects of citronellol on the expression of key quorum-sensing genes and virulence genes regulated thereby (real-time fluorescent quantitative PCR); format: cell-based; details: 1.25 μL/mL citronellol for 5 h
Protocol: as §1
The PAO1 bacterial suspension in a logarithmic growth phase was added to 50 mL of sterile LB liquid culture medium to reach a final concentration of 10^6 CFU/mL for the bacterial solution. Citronellol (β-citronellol) was added to reach the final concentrations of 0 (three biological replicates in the control group were named A1, A2, and A3, respectively) and 1.25 μL/mL (three biological replicates in the test groups were named B1, B2, B3). Each group was cultured at 37° C. and 180 rpm for 5 h, and centrifuged to collect bacteria, which were then quick-frozen at −80° C. for later use.
Total RNAs were extracted from the bacteria by a Trizol (Thermo Fisher Scientific) kit.
After extraction, the purity of the RNAs were detected with an ultra-micro spectrophotometer (Implen, Munich, Germany). An A260/A280 value of each RNA sample should be between 1.8 and 2.0. Reverse transcription and real-time fluorescent quantitative PCR amplification were carried out by using a PrimeScript RT Master Mix kit (Takara, Dalian, China) and an ETC 811 PCR instrument (Eastwin Life Sciences, Inc.). A q-PCR reaction system included Takara SYBR Premix Ex TaqII (Tli RNaseH Plus) (Code No. RR820A), and PCR procedures included: pre-denaturation at 95° C. for 30 s; and denaturation at 95° C. for 5 s and annealing at 60° C. for 34 s, 40 cycles. Based on 10 gene sequences published on the website of GenBank, primers for q-PCR were designed by using software Primer Premier 5.0, and at the same time, a 16S rRNA gene was used as an internal reference gene.

CC(C)=CCCC(C)CCO (stereo not drawn) [citronellol, β-citronellol]
time point when the absorbance value of the culture solution differs greatly (time to maximum absorbance) ([1]; 0.313 μL/mL): 26 h
time point when the absorbance value of the culture solution differs greatly (time to maximum absorbance) ([1]; 0.625 μL/mL): 37 h
time point when the absorbance value of the culture solution differs greatly (time to maximum absorbance) ([1]; 1.25 μL/mL): 39 h
time point when the absorbance value of the culture solution differs greatly (time to maximum absorbance) ([1]; 2.5 μL/mL): 48 h
inhibitory effect on the growth of PAO1 ([1]; citronellol at 0.313, 0.625, 1.25 and 2.5 μL/mL, LB, 37° C., 3 days, OD600): a certain yet weak inhibitory effect
difference in lag phase and logarithmic growth phase on the PAO1 growth curves ([1]; citronellol treatment groups at different concentrations (0.313-2.5 μL/mL)): no significant difference
expression of signaling molecule receptor protein gene lasR [2]: significantly up-regulated
expression of signaling molecule receptor protein gene pqsR [2]: significantly down-regulated
expression of signaling molecule synthase gene lasI [2]: significantly up-regulated
expression of signaling molecule synthase gene pgsA [2]: significantly down-regulated
transcription level of lasA [2]: up-regulated, but with a less significant change
transcription level of signaling molecule receptor protein gene rhIR [2]: significantly up-regulated
transcription level of signaling molecule synthase gene rhII [2]: changes a little
transcription level of toxA [2]: significantly up-regulated
transcription of virulence gene chiC [2]: inhibited
transcription of virulence gene lasB [2]: inhibited
transcription of virulence gene phzM [2]: inhibited
transcription of virulence gene psIB [2]: inhibited
